pEC50, pIC50: −log10 of the molar value.
System: panel of nearly 500 cancer cell lines
Assay: Cancer Cell Line Encyclopedia profiling, 3-day CellTiter-Glo
Type: cell-based
Design: Amax: unit not given here

CN(C)C(=O)c1cc2cnc(Nc3ccc(N4CCNCC4)cn3)nc2n1C1CCCC1 [Ribociclib, 7-cyclopentyl-2-(5-piperazin-1-yl-pyridin-2-ylamino)-7H-pyrrolo[2,3-d]pyrimidine-6-carboxylic acid dimethylamide]
Amax (8mgba (central_nervous_system)): 0.325
Amax (769p (kidney)): -56.5199
Amax (786o (kidney)): 2.199
Amax (8305c (thyroid)): -43.2823
Amax (8505c (thyroid)): -10.3812
pEC50 (CMK-86): 6.71
pIC50 (CMK-86): 6.29
pEC50 (COLO 699): 8.59
pIC50 (COLO 699): < 5.10
pEC50 (COV318): < 5.10
pIC50 (COV318): < 5.10
pEC50 (COV504): < 5.10
pIC50 (COV504): < 5.10
pEC50 (Fu97): 6.32
pIC50 (Fu97): < 5.10
pEC50 (GLC82): < 5.10
pIC50 (GLC82): < 5.10
pEC50 (HCC15): < 5.10
pIC50 (HCC15): < 5.10
pEC50 (HEC-6): < 5.10
pIC50 (HEC-6): < 5.10
pEC50 (HEC-251): < 5.10
pIC50 (HEC-251): < 5.10
pEC50 (HEY A8): 5.66
pIC50 (HEY A8): < 5.10
pEC50 (Homo sapiens, 8-MG-BA): < 5.10
pIC50 (Homo sapiens, 8-MG-BA): < 5.10
pEC50 (Homo sapiens, 22Rv1): 6.00
pIC50 (Homo sapiens, 22Rv1): 5.42
pEC50 (Homo sapiens, 639-V): < 5.10
pIC50 (Homo sapiens, 639-V): < 5.10
pEC50 (Homo sapiens, 769-P): 5.94
pIC50 (Homo sapiens, 769-P): 5.35
pEC50 (Homo sapiens, 786-0): < 5.10
pIC50 (Homo sapiens, 786-0): < 5.10
pEC50 (Homo sapiens, 8305C): < 5.10
pIC50 (Homo sapiens, 8305C): < 5.10
pEC50 (Homo sapiens, 8505C): 5.73
pIC50 (Homo sapiens, 8505C): < 5.10
pEC50 (Homo sapiens, A 172): < 5.10
pIC50 (Homo sapiens, A 172): < 5.10
pEC50 (Homo sapiens, A204): 7.41
pIC50 (Homo sapiens, A204): < 5.10
pEC50 (Homo sapiens, A253): < 5.10
pIC50 (Homo sapiens, A253): < 5.10
pEC50 (Homo sapiens, A549): 6.10
pIC50 (Homo sapiens, A549): < 5.10
pEC50 (Homo sapiens, A673): 6.25
pIC50 (Homo sapiens, A673): < 5.10
pEC50 (Homo sapiens, A2058): < 5.10
pIC50 (Homo sapiens, A2058): < 5.10
pEC50 (Homo sapiens, A2780): 6.70
pIC50 (Homo sapiens, A2780): 5.39
pEC50 (Homo sapiens, A-375): < 5.10
pIC50 (Homo sapiens, A-375): 5.10
pEC50 (Homo sapiens, ACHN): < 5.10
pIC50 (Homo sapiens, ACHN): < 5.10
pEC50 (Homo sapiens, AMO1): < 5.10
pIC50 (Homo sapiens, AMO1): < 5.10
pEC50 (Homo sapiens, AN3-CA): < 5.10
pIC50 (Homo sapiens, AN3-CA): < 5.10
pEC50 (Homo sapiens, ASPC1): < 5.10
pIC50 (Homo sapiens, ASPC1): < 5.10
pEC50 (Homo sapiens, AU565): < 5.10
pIC50 (Homo sapiens, AU565): < 5.10
pEC50 (Homo sapiens, AZ-521): < 5.10
pIC50 (Homo sapiens, AZ-521): < 5.10
pEC50 (Homo sapiens, BCPAP): < 5.10
pIC50 (Homo sapiens, BCPAP): < 5.10
pEC50 (Homo sapiens, BFTC-909): 5.47
pIC50 (Homo sapiens, BFTC-909): < 5.10
pEC50 (Homo sapiens, BGC-823): < 5.10
pIC50 (Homo sapiens, BGC-823): < 5.10
pEC50 (Homo sapiens, BL-41): < 5.10
pIC50 (Homo sapiens, BL-41): < 5.10
pEC50 (Homo sapiens, BT-474): < 5.10
pIC50 (Homo sapiens, BT-474): < 5.10
pEC50 (Homo sapiens, BT-549): < 5.10
pIC50 (Homo sapiens, BT-549): < 5.10
pEC50 (Homo sapiens, BXPC-3): < 5.10
pIC50 (Homo sapiens, BXPC-3): < 5.10
pEC50 (Homo sapiens, C2BBe1): < 5.10
pIC50 (Homo sapiens, C2BBe1): < 5.10
pEC50 (Homo sapiens, CAKI-2): < 5.10
pIC50 (Homo sapiens, CAKI-2): < 5.10
pEC50 (Homo sapiens, CAL-12T): 5.39
pIC50 (Homo sapiens, CAL-12T): 5.39
pEC50 (Homo sapiens, CAL-27): 5.42
pIC50 (Homo sapiens, CAL-27): < 5.10
pEC50 (Homo sapiens, CAL-85-1): < 5.10
pIC50 (Homo sapiens, CAL-85-1): < 5.10
pEC50 (Homo sapiens, CAMA-1): < 5.10
pIC50 (Homo sapiens, CAMA-1): < 5.10
pEC50 (Homo sapiens, CHL-1): < 5.10
pIC50 (Homo sapiens, CHL-1): < 5.10
pEC50 (Homo sapiens, CHP-212): 6.90
pIC50 (Homo sapiens, CHP-212): 5.74
pEC50 (Homo sapiens, COLO 201): < 5.10
pIC50 (Homo sapiens, COLO 201): < 5.10
pEC50 (Homo sapiens, COLO 205): 5.91
pIC50 (Homo sapiens, COLO 205): 5.46
pEC50 (Homo sapiens, COLO 320): < 5.10
pIC50 (Homo sapiens, COLO 320): < 5.10
pEC50 (Homo sapiens, COLO-678): 6.32
pIC50 (Homo sapiens, COLO-678): < 5.10
pEC50 (Homo sapiens, COLO-679): 5.99
pIC50 (Homo sapiens, COLO-679): < 5.10
pEC50 (Homo sapiens, COLO-741): 5.67
pIC50 (Homo sapiens, COLO-741): < 5.10
pEC50 (Homo sapiens, COR-L23): < 5.10
pIC50 (Homo sapiens, COR-L23): < 5.10
pEC50 (Homo sapiens, COR-L105): < 5.10
pIC50 (Homo sapiens, COR-L105): < 5.10
pEC50 (Homo sapiens, Calu-1): < 5.10
pIC50 (Homo sapiens, Calu-1): < 5.10
pEC50 (Homo sapiens, Calu-3): < 5.10
pIC50 (Homo sapiens, Calu-3): < 5.10
pEC50 (Homo sapiens, Calu-6): 5.83
pIC50 (Homo sapiens, Calu-6): < 5.10
pEC50 (Homo sapiens, Capan-2): < 5.10
pIC50 (Homo sapiens, Capan-2): < 5.10
pEC50 (Homo sapiens, DBTRG-05MG): 6.46
pIC50 (Homo sapiens, DBTRG-05MG): < 5.10
pEC50 (Homo sapiens, DMS-114): 6.95
pIC50 (Homo sapiens, DMS-114): < 5.10
pEC50 (Homo sapiens, DOHH-2): 6.92
pIC50 (Homo sapiens, DOHH-2): < 5.10
pEC50 (Homo sapiens, DOV13): < 5.10
pIC50 (Homo sapiens, DOV13): < 5.10
pEC50 (Homo sapiens, DU-145): < 5.10
pIC50 (Homo sapiens, DU-145): < 5.10
pEC50 (Homo sapiens, DV-90): 8.13
pIC50 (Homo sapiens, DV-90): < 5.10
pEC50 (Homo sapiens, Daoy): < 5.10
pIC50 (Homo sapiens, Daoy): < 5.10
pEC50 (Homo sapiens, Detroit 562): < 5.10
pIC50 (Homo sapiens, Detroit 562): < 5.10
pEC50 (Homo sapiens, EBC-1): 6.36
pIC50 (Homo sapiens, EBC-1): < 5.10
pEC50 (Homo sapiens, EFE-184): < 5.10
pIC50 (Homo sapiens, EFE-184): < 5.10
pEC50 (Homo sapiens, EFM-19): 7.32
pIC50 (Homo sapiens, EFM-19): < 5.10
pEC50 (Homo sapiens, EFO-21): < 5.10
pIC50 (Homo sapiens, EFO-21): < 5.10
pEC50 (Homo sapiens, EFO-27): < 5.10
pIC50 (Homo sapiens, EFO-27): < 5.10
pEC50 (Homo sapiens, ESS-1): 6.06
pIC50 (Homo sapiens, ESS-1): < 5.10
pEC50 (Homo sapiens, FaDu): < 5.10
pIC50 (Homo sapiens, FaDu): < 5.10
pEC50 (Homo sapiens, G-361): < 5.10
pIC50 (Homo sapiens, G-361): < 5.10
pEC50 (Homo sapiens, G-401): 8.05
pIC50 (Homo sapiens, G-401): < 5.10
pEC50 (Homo sapiens, G-402): 6.33
pIC50 (Homo sapiens, G-402): 5.69
pEC50 (Homo sapiens, GAMG): < 5.10
pIC50 (Homo sapiens, GAMG): < 5.10
pEC50 (Homo sapiens, GCIY): < 5.10
pIC50 (Homo sapiens, GCIY): < 5.10
pEC50 (Homo sapiens, GMS-10): < 5.10
pIC50 (Homo sapiens, GMS-10): < 5.10
pEC50 (Homo sapiens, Granta-519): < 5.10
pIC50 (Homo sapiens, Granta-519): < 5.10
pEC50 (Homo sapiens, HCC44): 5.80
pIC50 (Homo sapiens, HCC44): < 5.10
pEC50 (Homo sapiens, HCC70): < 5.10
pIC50 (Homo sapiens, HCC70): < 5.10
pEC50 (Homo sapiens, HCC78): < 5.10
pIC50 (Homo sapiens, HCC78): < 5.10
pEC50 (Homo sapiens, HCC827): < 5.10
pIC50 (Homo sapiens, HCC827): < 5.10
pEC50 (Homo sapiens, HCC1187): < 5.10
pIC50 (Homo sapiens, HCC1187): < 5.10
pEC50 (Homo sapiens, HCC1395): < 5.10
pIC50 (Homo sapiens, HCC1395): < 5.10
pEC50 (Homo sapiens, HCC1569): < 5.10
pIC50 (Homo sapiens, HCC1569): < 5.10
pEC50 (Homo sapiens, HCC1806): < 5.10
pIC50 (Homo sapiens, HCC1806): < 5.10
pEC50 (Homo sapiens, HCC1954): < 5.10
pIC50 (Homo sapiens, HCC1954): < 5.10
pEC50 (Homo sapiens, HCC2935): < 5.10
pIC50 (Homo sapiens, HCC2935): < 5.10
pEC50 (Homo sapiens, HCC4006): < 5.10
pIC50 (Homo sapiens, HCC4006): < 5.10
pEC50 (Homo sapiens, HCT-15): 5.34
pIC50 (Homo sapiens, HCT-15): < 5.10
pEC50 (Homo sapiens, HCT-116): < 5.10
pIC50 (Homo sapiens, HCT-116): < 5.10
pEC50 (Homo sapiens, HDQ-P1): 6.30
pIC50 (Homo sapiens, HDQ-P1): < 5.10
pEC50 (Homo sapiens, HEC-1-A): < 5.10
pIC50 (Homo sapiens, HEC-1-A): < 5.10
pEC50 (Homo sapiens, HEC-1B): 7.56
pIC50 (Homo sapiens, HEC-1B): < 5.10
pEC50 (Homo sapiens, HEL 92.1.7): < 5.10
pIC50 (Homo sapiens, HEL 92.1.7): < 5.10
pEC50 (Homo sapiens, HGC-27): 6.73
pIC50 (Homo sapiens, HGC-27): 6.27
pEC50 (Homo sapiens, HMCB): < 5.10
pIC50 (Homo sapiens, HMCB): < 5.10
pEC50 (Homo sapiens, HPAC): 5.57
pIC50 (Homo sapiens, HPAC): 5.57

— paper PMC6219668 (Oncotarget, 2018)
